These results are taken from publication PMC11795524, “Melanin-Binding-Based Discovery of Topically Instilled Carbonic Anhydrase Inhibitors for Targeted Delivery and Prolonged Action in the Eye” (Molecular Pharmaceutics, 2025).

Series [1] has as its system pigmented rabbits (Chinchilla Bastard). The series can be described thus: IOP study in pigmented rabbits after single eye drop. It counts as in vivo, rabbit. The method, then: Five 3–5 months old albino (New Zealand White, all females) and five 3–6 months old pigmented rabbits (Chinchilla Bastard, 1 male and 4 females) were purchased from Charles River Laboratories, UK and Germany, respectively. Prior to the experiments, the rabbits were habituated to handling, and the baseline values of IOP were measured. During the experiments, rabbits weighed 2.4–4.0 kg.
First, stock solutions of CAIs (250 mg/mL) in dimethyl sulfoxide (Sigma-Aldrich, Germany) were prepared. These stock solutions were diluted with PBS (pH 7.4) to obtain 1 mg/mL (0.1%) or 10 mg/mL (1%) solutions.
The CAI solutions were tested in albino rabbits (eye drops of 0.1, and 0.5 or 1.0%) and in pigmented rabbits (0.5 or 1.0%). The novel CAI concentrations in solutions were determined based on the drug solubility with the aim to load the highest possible drug concentration to the single eye drop.
Baseline IOP of pigmented rabbits was raised with two intravitreal triamcinolone acetonide injections (Triesence 40 mg/mL, Novartis Finland Ltd.) with 1 week interval to each eye. This method[25],[26] may induce ocular hypertension even up to 60 days in rabbits.[25]
The rabbits were anesthetized with 0.4 mg/kg, s.c. medetomidine (Domitor vet 1 mg/mL, Orion Pharma, Espoo, Finland) and 20 mg/kg s.c. ketamine (Ketaminol vet 50 mg/mL, Pfizer Oy Animal Health, Espoo, Finland). Mydriasis was induced with topical tropicamide eyedrops (Oftan Tropicamid 5 mg/mL, Santen Pharmaceutical Co., Ltd., Tampere, Finland) and the ocular surface was anesthetized with oxybuprocaine eye drop (Oftan Obucain 4 mg/mL, Santen Pharmaceutical Co., Ltd., Tampere, Finland). Thereafter, intravitreal injection of triamcinolone acetonide (100 μL) was given with a 31G needle and syringe. After injection, the eyes were moisturized with carbomer gel (Viscotears 2 mg/g, Dr. Gerhard Mann chem.-pharm. Fabrik GmbH, Berlin, Germany) and the anesthesia was antagonized with 1 mg/kg atipamezole s.c. (Antisedan vet 5 mg/mL, Orion Pharma, Espoo, Finland).
After the second injection, IOP was allowed to settle for 10 days before the experiments were performed. […] Induction of ocular hypertension is presented in Appendix Figure 3. The IOP-lowering effects of the molecules were investigated sequentially, each test initiating once baseline IOP levels was attained.
The IOP levels in the rabbits were measured with a tonometer (Tonometer Pro, Icare Finland Ltd.). After baseline IOP measurements, a single eye drop (25 μL) was applied to the left eye, whereas the right eye was not treated. After eye drop instillation, the eyelids were kept open manually for 1 min. The IOP was measured from both eyes of the rabbits at 0.5, 1, 2, 3, 4, 5, 6, 7, and 8 h after eye drop instillation. In the case of the pigmented rabbits, the measurements were continued until 10 h postinstillation, and further until the IOP had returned to the normal baseline.
The CAIs were tested in the same rabbits to minimize interindividual data variation. Washout periods of at least 3 days were used between instillation of different compounds. The experiments started always at 8 a.m. to eliminate bias due to diurnal IOP fluctuation. At each time point, the pressure was measured three times with the same eye, and the average values were calculated and used in data analysis.

A short description of series [2]: Ocular pharmacokinetics in albino rats (iris-ciliary body, 3H-A01). It counts as in vivo, rat. The source says: Eight albino rats (RccHan/Wist) and 18 pigmented rats (HsdOla/LH) were obtained from Envigo Laboratories B.V. (The Netherlands) and were used in pharmacokinetic experiments. Additional 13 albino and 13 pigmented rats were used in generation of the analytical standards. Young adult (3–4 months; 340–445 g) rats were used.
To conduct the pharmacokinetic study, bromo-containing CAI A15 (molecular structure presented in Table 1) was conveniently converted into [^3H]-A01 through catalytic dehalogenation in tritium gas. A15 (3.05 mg, 8.2 μmol) was dissolved in dimethylformamide (0.3 mL) and exposed to 99 mbar of tritium gas in a tritium manifold system for 1.5 h in the presence of 10% palladium on carbon (0.57 mg). Following filtration, the reaction mixture underwent double lyophilization with 1 mL ethanol to eliminate labile tritium. […] The crude material was purified via high-performance liquid chromatography, employing a Reprosil-Pur C18-HD column (250 × 10 mm, 5 μm), with a mobile phase comprising 40% acetonitrile in 50 mM ammonium hydrogen carbonate. Purified fractions were subsequently combined, subjected to solid-phase extraction, and eluted with ethanol. Radiochemical analysis indicated a purity exceeding 97%, with a molar activity of 0.29 TBq/mmol (7.9 Ci/mmol) and a total activity of 850 MBq (23 mCi). The solution of 1% A01 (10 mg/mL) was prepared similarly as in the IOP study (see Table 1) except that the solution contained also 72 μg/mL of [^3H]–A01 (specific activity 27.21 mCi/mg). The solution was prepared freshly for each experiment.
Seven μL of A01 solution (10 mg/mL including 72 μg/mL of ^3H–A01) was topically applied to both eyes of albino and pigmented rats. Rats were euthanized with carbon dioxide and cervical dislocation. The eyes (n = 4) of albino rats were collected 0.5, 2, 4, and 7 h after treatment. The eyes of pigmented rats were dissected 0.5, 2, 4, 7, 24, 48, 72, 144, and 240 h after eye drop instillation. The eyes were enucleated and dissected immediately after euthanasia. Iris-ciliary body was dissected, snap frozen on dry ice, and stored at −80 °C until analysis. The analyses were conducted within 24 h from tissue dissection.
Bound and unbound radioactivity of tritiated A01 was determined from dissected iris-ciliary body samples. First, the tissues were mechanically homogenized and diluted with 0.9% sodium chloride (weight ratio 35:1). Then, cellular unbound A01 was released from the iris-ciliary body cells by freezing and thawing the solutions three times with dry ice and a water bath (37 °C). Thereafter, the supernatant and pellet were separated by centrifuging the samples for 10 min at 13,000 rpm. The pellets were dissolved by using 60 min incubation in 100 μL of Solvable (PerkinElmer, Waltham, MA, USA). The samples were then bleached with 10 μL of hydrogen peroxide for 30 min. The pellet volume was calculated as the difference between the total and supernatant volumes.
After subtracting the background radioactivity, the measured net counts per minute (cpm) were converted to disintegrations per minute (dpm) taking into account color quenching and device efficiency. Standard curves were generated for each matrix (albino and pigmented supernatants and pellets; Appendix Figure 1). […] Signal to noise ratios of measured pellet and supernatant samples in liquid scintillation counting are shown in Appendix Table 3.

The mark [3] stands for this setting: iris-ciliary body, single topical eye drop.

“And” between values parts separate entries of the source, which are not always exact repeats. Identical values can stand only once.

On to `C/C(=N\Nc1ccc(S(N)(=O)=O)cc1)c1cccnc1` [A01], for which the “duration of IOP reduction” value in series [1] (hypertensive pigmented rabbits, single eye drop) turned out to be 14 days. Moreover, the “duration of IOP decrease” value in series [1] (pigmented rabbits, single eye drop) was determined as 2 weeks. In addition, the “ratio (AUCpigm/AUCalbino) of IOP response” value in series [1] (pigmented vs albino rabbits) was 85 and 85.5. Besides, the concentration at 4 h in series [2] (RccHan/Wist (albino), rat, topical, 7 µL of 10 mg/mL solution per eye, albino iris-ciliary body, 4 h, read-out: free concentration by 4 h) is around 50 ng/g. Further, in series [2] (albino eyes), the “tmax (bound drug)” value was determined as 2 h and the “tmax(total drug)” value turned out to be 2 h. Besides, in series [2] (albino iris-ciliary body), the bound concentrations is below 0.05 ng/mg, the bound fraction entry is reported as “below 10%” and the “total concentration after decline” value is on record as “≈ 0.05 ng/mg”. In addition, the “Cmax,unbound” value in series [2] (albino iris-ciliary body, 2 h postdosing) was 0.50 ng/mg. In series [2] (albino iris-ciliary body, 2 h postdosing, 7 μL eye drop 10 mg/mL), the “Cmax, total A01 concentration (bound + unbound)” value was determined as 0.54 ng/mg. Further, in series [2] (setting [3]), the “AUC0-last in albino tissues, bound A01” value was 0.09 (ng/mg) × h; the “AUC0-last in albino tissues, total A01” value is 1.37 (ng/mg) × h; the “AUC0-last in albino tissues, unbound A01” value is 1.29 (ng/mg) × h.
